One experiment deals with H2009. Briefly: Cell viability dose-response, H2009. Format: cell-based, human. The conditions noted are these: Homo sapiens, NCI-H2009, Table 8; 12-point dose-response starting at 50 micromolar. As to the method:
(§1) FIG. 6A. […] Cell viability is plotted vs. compound concentration. Compound was added to cells plated at 15% confluence in 96-well plates in RPMI-1640 media supplemented with 5% Fetal Bovine Serum and 2 mM L-Glutamine. After 4 days of incubation, ATP levels were measured using Cell Titer Glo (Promega). Data are presented as the average of 2 replicates ±SEM.
(§2) Selectivity may be measured by the half maximal inhibitory concentration (IC50), which, as used herein, is a measure of the effectiveness of a compound in killing cells. This quantitative measure indicates how much of a particular compound is needed to kill a particular cell population by half (e.g., as indicated by the amount of ATP). […] The IC50 can be determined by constructing a dose-response curve. The lower the IC50, the higher the potency, and the greater the difference between IC50 values for different cell lines (e.g., sensitive lines vs. insensitive lines, and sensitive lines vs. normal lines) the greater the selectivity. […]
(§3) With this information, we synthesized and tested a series of small molecules derived in conception from the oxalamide and chromone scaffold including N-acyl ureas, as shown in Tables 6-8. Each compound was tested in a 12-point dose-response study starting at 50 micromolar and decreasing in 3-fold increments to sub-nanomolar concentrations, in duplicate. Additionally, one or more additional cell line was tested in the same way.
`O=c1c(Oc2cccc(F)c2)coc2cc(OCc3cnn(-c4ccccc4)c3)ccc12` [SW208592-1]: half-maximal activity (AC50) was put at 16.5 µM.
Same read-out and setting: in the case of `O=c1c(-c2ccc(Cl)cc2)coc2cc(OCc3cnn(-c4ccccc4)c3)ccc12` [SW208738] it was 49.5 µM; in that of `O=c1c(-c2cccc(O)c2)coc2cc(OCc3cnn(-c4ccccc4)c3)ccc12` [SW208740], 39 µM; in that of `O=c1c(-c2ccc(O)cc2)coc2cc(OCc3cnn(-c4ccccc4)c3)ccc12` [SW208757-1], 5.63 µM.
The compound `Cc1ccc(/C=C/c2coc3cc(OCc4cnn(-c5ccccc5)c4)ccc3c2=O)cc1` [SW208758-1] had an AC50 of 16.5 µM. This AC50 is about 2.9-fold higher than that of the compound before.
The compound `COc1ccc(-c2coc3cc(OCc4cnn(-c5ccccc5)c4)ccc3c2=O)cc1` [SW208759-1] returned an AC50 of 49.5 µM.
As for `O=c1c(-c2ccc(F)cc2F)coc2cc(OCc3cnn(-c4ccccc4)c3)ccc12` [SW208760-1], the half-maximal activity concentration (AC50) was found to be 20.7 µM.
`O=c1c(-c2ccc3ccccc3c2)coc2cc(OCc3cnn(-c4ccccc4)c3)ccc12` [SW208761-1] registered an AC50 of 32.4 µM.
For `O=c1c(-c2ccc(F)c(F)c2)coc2cc(OCc3cnn(-c4ccccc4)c3)ccc12` [SW208762-1], the half-maximal activity concentration (AC50) was determined as 43.2 µM.
With `O=c1c(-c2cc(C(F)(F)F)cc(C(F)(F)F)c2)coc2cc(OCc3cnn(-c4ccccc4)c3)ccc12` [SW208763-1], the activity was half-maximal at 3.26 µM (AC50).
On the same count and under the same terms, under `O=c1c(C2=CCCCC2)coc2cc(OCc3cnn(-c4ccccc4)c3)ccc12` [SW208764-1] stands 49.5 µM; under `CCOc1ccc(-c2coc3cc(OCc4cnn(-c5ccccc5)c4)ccc3c2=O)cc1` [SW208765-1], 16.5 µM.
As to `O=c1c(C2CC2)coc2cc(OCc3cnn(-c4ccccc4)c3)ccc12` [SW208766-1], the AC50 was found to be 49.5 µM.
`COc1ccc(-c2coc3cc(OCc4cnn(-c5ccccc5)c4)ccc3c2=O)c(C)c1` [SW208767-1] displayed an AC50 of 49.5 µM.
With `O=c1c(C#Cc2ccccc2)coc2cc(OCc3cnn(-c4ccccc4)c3)ccc12` [SW208768-1], the activity was half-maximal at 19.9 µM (AC50).
As to `O=c1c(Cc2ccccc2)coc2cc(OCc3cnn(-c4ccccc4)c3)ccc12` [SW208769-1], half-maximal activity (AC50) was put at 49.5 µM. Compared with the last compound, the AC50 is about 2.5-fold higher.
Take `Cn1ccc(=O)c2ccc(OCc3cnn(-c4ccccc4)c3)cc21` [SW208832-1]: the AC50 was found to be 7.51 µM. This AC50 is about 6.6-fold lower than that of the compound before.
Compound `O=c1c(C(O)c2ccccc2)coc2cc(OCc3cnn(-c4ccccc4)c3)ccc12` (stereo not drawn) [SW208833-1] returned an AC50 of 8.3 µM.
Same read-out and setting: in the case of `O=C(c1ccccc1)c1coc2cc(OCc3cnn(-c4ccccc4)c3)ccc2c1=O` [SW208844-1] it was 30 µM.

The subject of the next experiment is H2122. Briefly: Cell viability dose-response, H2122. The conditions noted are these: Homo sapiens, NCI-H2122, Table 8; 12-point dose-response starting at 50 micromolar. The format is cell-based, human. In short, it runs like this:
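Cells plated at 15% confluence in RPMI-1640 with 5% FBS and 2 mM L-glutamine, treated with compound in a 12-point, 3-fold dilution series from 50 micromolar, in duplicate. ATP measured by Cell Titer Glo after 4 days; IC50 taken from the dose-response curve.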
With `O=c1c(Oc2cccc(F)c2)coc2cc(OCc3cnn(-c4ccccc4)c3)ccc12` [SW208592-1], the concentration at half-maximal activity (AC50) was found to be 0.15 µM. This lies in the sub-micromolar range.
Take `O=c1c(-c2ccc(Cl)cc2)coc2cc(OCc3cnn(-c4ccccc4)c3)ccc12` [SW208738]: the AC50 was at least 49.5 µM.
As for `O=c1c(-c2cccc(O)c2)coc2cc(OCc3cnn(-c4ccccc4)c3)ccc12` [SW208740], the AC50 was 21 µM.
The compound `O=c1c(-c2ccc(O)cc2)coc2cc(OCc3cnn(-c4ccccc4)c3)ccc12` [SW208757-1] returned an AC50 of at least 49.5 µM.
Same read-out and setting: under `Cc1ccc(/C=C/c2coc3cc(OCc4cnn(-c5ccccc5)c4)ccc3c2=O)cc1` [SW208758-1] stands at least 49.5 µM; under `COc1ccc(-c2coc3cc(OCc4cnn(-c5ccccc5)c4)ccc3c2=O)cc1` [SW208759-1], at least 49.5 µM; under `O=c1c(-c2ccc(F)cc2F)coc2cc(OCc3cnn(-c4ccccc4)c3)ccc12` [SW208760-1], 0.11 µM.
For `O=c1c(-c2ccc3ccccc3c2)coc2cc(OCc3cnn(-c4ccccc4)c3)ccc12` [SW208761-1], the AC50 was at least 49.5 µM.
Same read-out and setting: in the case of `O=c1c(-c2ccc(F)c(F)c2)coc2cc(OCc3cnn(-c4ccccc4)c3)ccc12` [SW208762-1] it was 0.18 µM; in that of `O=c1c(-c2cc(C(F)(F)F)cc(C(F)(F)F)c2)coc2cc(OCc3cnn(-c4ccccc4)c3)ccc12` [SW208763-1], 0.08 µM; in that of `O=c1c(C2=CCCCC2)coc2cc(OCc3cnn(-c4ccccc4)c3)ccc12` [SW208764-1], at least 49.5 µM.
`CCOc1ccc(-c2coc3cc(OCc4cnn(-c5ccccc5)c4)ccc3c2=O)cc1` [SW208765-1] showed an AC50 of at least 49.5 µM.
`O=c1c(C2CC2)coc2cc(OCc3cnn(-c4ccccc4)c3)ccc12` [SW208766-1] returned an AC50 of 16.5 µM. This counts as double-digit micromolar.
Turning to `COc1ccc(-c2coc3cc(OCc4cnn(-c5ccccc5)c4)ccc3c2=O)c(C)c1` [SW208767-1], the AC50 was found to be 2.07 µM. This AC50 is about 8-fold lower than that of the compound before.
The compound `O=c1c(C#Cc2ccccc2)coc2cc(OCc3cnn(-c4ccccc4)c3)ccc12` [SW208768-1] gave an AC50 of 24.8 µM.
On to `O=c1c(Cc2ccccc2)coc2cc(OCc3cnn(-c4ccccc4)c3)ccc12` [SW208769-1], for which half-maximal activity (AC50) was put at 0.027 µM.
For `Cn1ccc(=O)c2ccc(OCc3cnn(-c4ccccc4)c3)cc21` [SW208832-1], the activity was half-maximal at 7.56 µM (AC50).
`O=c1c(C(O)c2ccccc2)coc2cc(OCc3cnn(-c4ccccc4)c3)ccc12` (stereo not drawn) [SW208833-1] came in with a half-maximal activity concentration (AC50) of 0.216 µM.
In the case of `O=C(c1ccccc1)c1coc2cc(OCc3cnn(-c4ccccc4)c3)ccc2c1=O` [SW208844-1], the AC50 was determined as 0.864 µM.

In another experiment the test system is HCC44. Briefly: Cell viability dose-response, HCC44. The format is cell-based, human. To be noted: Homo sapiens, HCC44, Table 8; 12-point dose-response starting at 50 micromolar. As to the method:
as §1, §2, §3
For `O=c1c(Oc2cccc(F)c2)coc2cc(OCc3cnn(-c4ccccc4)c3)ccc12` [SW208592-1], the AC50 is 0.08 µM.
Consider `O=c1c(-c2ccc(Cl)cc2)coc2cc(OCc3cnn(-c4ccccc4)c3)ccc12` [SW208738], for which half-maximal activity (AC50) was put at 49.5 µM.
On the same count and under the same terms, under `O=c1c(-c2cccc(O)c2)coc2cc(OCc3cnn(-c4ccccc4)c3)ccc12` [SW208740] stands 49.5 µM; under `O=c1c(-c2ccc(O)cc2)coc2cc(OCc3cnn(-c4ccccc4)c3)ccc12` [SW208757-1], 49.5 µM.
The compound `Cc1ccc(/C=C/c2coc3cc(OCc4cnn(-c5ccccc5)c4)ccc3c2=O)cc1` [SW208758-1] came in with an AC50 of 49.5 µM.
In turn, `COc1ccc(-c2coc3cc(OCc4cnn(-c5ccccc5)c4)ccc3c2=O)cc1` [SW208759-1] registered an AC50 of 49.5 µM. That is a double-digit micromolar value.
In the case of `O=c1c(-c2ccc(F)cc2F)coc2cc(OCc3cnn(-c4ccccc4)c3)ccc12` [SW208760-1], the activity was half-maximal at 49.5 µM (AC50). In other words, the double-digit micromolar range.
Compound `O=c1c(-c2ccc3ccccc3c2)coc2cc(OCc3cnn(-c4ccccc4)c3)ccc12` [SW208761-1] registered an AC50 of 49.5 µM.
Consider `O=c1c(-c2ccc(F)c(F)c2)coc2cc(OCc3cnn(-c4ccccc4)c3)ccc12` [SW208762-1], for which the AC50 is 49.5 µM. This counts as double-digit micromolar.
Still for that read-out and setting: under `O=c1c(-c2cc(C(F)(F)F)cc(C(F)(F)F)c2)coc2cc(OCc3cnn(-c4ccccc4)c3)ccc12` [SW208763-1] stands 1.36 µM; under `O=c1c(C2=CCCCC2)coc2cc(OCc3cnn(-c4ccccc4)c3)ccc12` [SW208764-1], 49.5 µM.
For `CCOc1ccc(-c2coc3cc(OCc4cnn(-c5ccccc5)c4)ccc3c2=O)cc1` [SW208765-1], the AC50 amounted to 49.5 µM.
`O=c1c(C2CC2)coc2cc(OCc3cnn(-c4ccccc4)c3)ccc12` [SW208766-1]: half-maximal activity (AC50) was put at 49.5 µM.
Turning to `COc1ccc(-c2coc3cc(OCc4cnn(-c5ccccc5)c4)ccc3c2=O)c(C)c1` [SW208767-1], the AC50 turned out to be 4.06 µM.
Compound `O=c1c(C#Cc2ccccc2)coc2cc(OCc3cnn(-c4ccccc4)c3)ccc12` [SW208768-1] had an AC50 of 16.5 µM.
Take `O=c1c(Cc2ccccc2)coc2cc(OCc3cnn(-c4ccccc4)c3)ccc12` [SW208769-1]: the AC50 came to 3.18 µM.
Compound `Cn1ccc(=O)c2ccc(OCc3cnn(-c4ccccc4)c3)cc21` [SW208832-1] had an AC50 of 49.5 µM. Against the preceding compound, the AC50 is about 16-fold higher.
Same read-out and setting: under `O=c1c(C(O)c2ccccc2)coc2cc(OCc3cnn(-c4ccccc4)c3)ccc12` (stereo not drawn) [SW208833-1] stands 9.86 µM; under `O=C(c1ccccc1)c1coc2cc(OCc3cnn(-c4ccccc4)c3)ccc2c1=O` [SW208844-1], 23.7 µM.

The values above are taken from US9789096B2, “Methods and compositions for selective and targeted cancer therapy” (Board of Regents of the University of Texas System, priority 2013, dated 2017).
